Data reported in US20250319212A1, “GADOLINIUM-BASED COMPOUND, AND MRI CONTRAST AGENT INCLUDING SAME” (KYUNGPOOK NATIONAL UNIVERSITY INDUSTRY-ACADEMIC COOPERATION …, priority 2021, published 2025).

Tests used:
[1] = Measurement of relaxivity (r1, r2) in 3T MRI phantom; format: physicochemical; settings: tertiary distilled water, 0.0625-1 mM, linear regression, in mM-1·s-1 (unit assumed)
Experimental: The relaxivity (r1, r2) of each of synthesized Gd-DO3A-Hba, and cyclic commercial contrast agents Gadovist® and Dotarem® as comparison groups material was measured. Specifically, a phantom was prepared by diluting the gadolinium complex in tertiary distilled water to five concentrations (0.0625, 0.125, 0.25, 0.5, 1 mM), and then T1 and T2 relaxation times were measured in 3T MRI. Thus, R (Relaxation rate=1/T) of each concentration was calculated and the relaxivity (r1, r2) result of the gadolinium complex was obtained through linear regression analysis (see FIG. 3) and shown in a following Table 1.

amyloid beta polymer = amyloid beta polymer (Homo sapiens, UniProt P05067); assay: Amyloid beta polymer targeting ability, phantom experiment on 9.4T MR; format: binding; settings: incubated with amyloid beta polymer 37° C. 24 hours, washed pellet, FIG. 6
Experimental: (1) 221.5 μL of HFIP was added to 1 mg of amyloid beta at a concentration of 1 mM, followed by shaking for 1 hour at room temperature using a shaker to remove preaggregation. (2) The amyloid beta from which the preaggregation was removed was dried, and 221.5 μL of DMSO was added thereto to achieve a 1 mM concentration. Using a mixer and sonicator, a suspension thereof was prepared, and 878.5 μL of PBS (1×, pH 7.4) was added thereto to achieve a 0.2 mM concentration. (3) After incubating the suspension at 37° C. for 4 days using a shaker, the polymerized amyloid beta polymer was dispensed by 200 μL. Then, 20 μL of a solution in which each of Gd-DO3A-Hba and the commercial contrast agent (Gadovist®) was dissolved in PBS at 2 mM concentration was added thereto. The incubation was carried out thereon at 37° C. for 24 hours using a shaker. (4) After 24 hours has elapsed, centrifugation was performed thereon to remove the supernatant therefrom. The amyloid beta polymer was washed using PBS. 200 μL of a solution of PBS:DMSO=9:1 was added to a pellet to prepare an MRI phantom sample. As a control, a phantom sample obtained by incubating only the amyloid beta polymer was used. […]

amyloid beta polymer, sequence (P05067 672-713 limits assumed): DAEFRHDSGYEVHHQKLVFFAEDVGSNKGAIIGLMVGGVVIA

Compound | relaxivity r1 [1] | relaxivity r2 [1] | signal intensity / contrast enhancement compared to phantom of only amyloid beta polymer (amyloid beta polymer)
O=C([O-])CN1CCN(CC(=O)[O-])CCN([C@H](CO)[C@H](O)CO)CCN(CC(=O)[O-])CC1.[Gd+3] (racemic) [Gadovist ®] | 3.9 ± 0.1 | 4.9 ± 0.1 | little difference in contrast enhancement effect
O=C([O-])CN1CCN(CC(=O)[O-])CCN(CC(=O)[O-])CCN(CC(=O)[O-])CC1.[Gd+3] [Dotarem ®, Gd-DOTA] | 3.4 ± 0.1 | 3.9 ± 0.2 | –
